{"source": "paper PMC8197855", "about": "“Peptide/β-Peptoid Hybrids with Activity against Vancomycin-Resistant Enterococci: Influence of Hydrophobicity and Structural Features on Antibacterial and Hemolytic Properties” (International Journal of Molecular Sciences, 2021)", "key": {"E. faecium 1798": {"system": "E. faecium 1798", "assay": "microbe, parasite or virus in culture", "assay_type": "cell-based, Enterococcus faecium", "conditions": "1798, 24 h", "protocol": "(§1) Overnight cultures of the enterococcal isolates were diluted in physiological saline (0.9% NaCl) to reach a turbidity of 0.5 McFarland units (Sensititre® nephelometer and the Sensititre® McFarland Standard). Bacterial suspensions were adjusted to 5 × 10^5 CFU/mL in MHB II or BHI broth containing two-fold dilutions of peptidomimetics or conventional antibiotics in a final volume of 100 µL. The plates were incubated for 24 h at 37 °C without shaking. […] All experiments were performed in three biological replicates."}, "E. faecium 2961": {"system": "E. faecium 2961", "assay": "microbe, parasite or virus in culture", "assay_type": "cell-based, Enterococcus faecium", "conditions": "2961, 24 h", "protocol": "as §1"}, "E. faecium 3978": {"system": "E. faecium 3978", "assay": "microbe, parasite or virus in culture", "assay_type": "cell-based, Enterococcus faecium", "conditions": "3978, 24 h", "protocol": "as §1"}, "E. faecium D344R": {"system": "E. faecium D344R", "assay": "microbe, parasite or virus in culture", "assay_type": "cell-based, Enterococcus faecium", "conditions": "E. faecium D344R, human clinical isolate; 24 h", "protocol": "as §1"}, "E. faecium ATCC 19434 [1]": {"system": "E. faecium ATCC 19434", "assay": "microbe, parasite or virus in culture", "assay_type": "cell-based, Enterococcus faecium", "conditions": "ATCC 19434, 24 h", "protocol": "as §1, with “replicates. […]” for “replicates.”"}, "E. faecalis ATCC 29212 [2]": {"system": "E. faecalis ATCC 29212", "assay": "microbe, parasite or virus in culture", "assay_type": "cell-based, Enterococcus faecalis", "conditions": "ATCC 29212, 24 h", "protocol": "as §1, with “replicates. […]” for “replicates.”"}, "E. faecalis 38262": {"system": "E. faecalis 38262", "assay": "microbe, parasite or virus in culture", "assay_type": "cell-based, Enterococcus faecalis", "protocol": "as §1"}, "E. faecalis 39002": {"system": "E. faecalis 39002", "assay": "microbe, parasite or virus in culture", "assay_type": "cell-based, Enterococcus faecalis", "conditions": "39002, 24 h", "protocol": "as §1"}, "[3]": {"assay": "Hydrophobicity by analytical RP-HPLC (% MeCN at peak elution)", "assay_type": "physicochemical", "protocol": "Water was filtered by using an Evoqua LaboStar PRO TWF Ultra Pure Water System prior to use in high-performance liquid chromatography (HPLC). The retention time for each peptidomimetic was determined by analytical HPLC using a Phenomenex Luna C18(2) HST column (100 mm × 3 mm; particle size: 2.5 μm; pore size: 100 Å) on a Shimadzu Prominence and Shimadzu Nexera system using an aqueous MeCN gradient with 0.1% trifluoroacetic acid (TFA) added (eluent A: 5:95 MeCN–H2O + 0.1% TFA; eluent B: 95:5 MeCN–H2O + 0.1% TFA); a flow rate of 0.5 mL/min was used. For the elution of peptidomimetics, a linear gradient of 0% to 60% B over 10 min was used with UV detection at λ = 220 nm. The percentage MeCN at peak elution was calculated from the retention time (tR) by using the following formula:%MeCN = [0.95 × 0.6 × tR/10 + 0.05 × (1 − 0.6 × tR/10)] × 100%"}, "Hemolytic activity": {"assay": "Hemolytic activity", "assay_type": "cell-based, human", "conditions": "37 °C, 1% red blood cell suspension; for hemolysis at 60 min, 400 µg/mL: human, human red blood cells (washed, 1% suspension)", "protocol": "A suspension of hRBCs (Single-donor human red blood cells—washed; catalogue No. IPLA-W3 from Innovative researchTM) was washed three times with PBS buffer and centrifuged for 5 min at 2500 rpm. A two-fold serial dilution of compounds in PBS buffer was prepared. Plates (conical-bottomed 96-well plates) with 3 replicate wells per dilution, containing 1% red blood cell suspension, were prepared and dosed with the test compound to achieve a final concentration of 400 μg/mL in a total volume of 100 μL. The plates were incubated (37 °C) for 60 min with mild agitation, and then the cells were pelleted by centrifugation at 1500 rpm for 5 min. Then, the supernatants (50 μL) were transferred to a fresh 96-well plate, and then the concentration of hemoglobin was detected by measuring the OD at 405 nm. The OD of cells incubated with 1% SDS achieved 100% hemolysis, while the OD of cells incubated with PBS buffer achieved 0% hemolysis. The concentration tested was 400 μg/mL (only average values are stated in Table 3). The percent hemolysis was calculated by using the formula:Hemolysis(%) = 100 × [(Asample − Aneg.control)/(Apos. control − Aneg.control)]"}, "[4]": {"system": "HepG2 cell line ATCC HB-8065", "assay": "Effect on HepG2 cell viability (MTT assay)", "assay_type": "cell-based, human", "conditions": "48 h", "protocol": "The effect of peptidomimetics on mammalian cell viability was determined on the HepG2 cell line ATCC HB-8065. In brief, HepG2 cells were seeded into flat-bottom 96-well plates at a concentration of 5000 cells per well. The cells were incubated for 24 h in a humidified incubator (5% CO2, 37 °C). Subsequently, the medium was removed, and the cells were incubated for 48 h in a humidified incubator (5% CO2, 37 °C) with peptidomimetics in serial dilutions. An MTT assay was then performed; in brief, after incubation with the test compounds, the culture medium was removed and fresh medium with 0.2 mg/mL MTT was then added into each well. After incubation (3 h, 37 °C, 5% CO2), the medium with MTT was removed, and 200 μL dimethyl sulfoxide was added at once to each sample. The absorbance of MTT was measured using the spectrophotometer TECAN Infinite M1000 at 540 nm. The relative viability was calculated by using the formula:ODtreated cells × 100/ODcontrol cells\nThe IC50 values were calculated using the program Graph Pad Prism 5.0. For all compounds, the test range was 10–1280 μg/mL."}, "E. faecium ATCC 19434 [5]": {"system": "E. faecium ATCC 19434", "assay": "Broth checkerboard assay with conventional antibiotics", "assay_type": "cell-based, Enterococcus faecium", "conditions": "antibiotic alone (-); BHI broth", "protocol": "(§2) The strain culture preparation and final volume were the same as in the MIC assay. […] The plates were incubated for 24 h at 37 °C without shaking. […] All experiments were performed in two biological replicates.\n(§3) To evaluate the effect of the combinations, the fractional inhibitory concentration index (FICI) was calculated for each combination according to:ΣFIC = FICA + FICB = (CA/MICA) + (CB/MICB)\n(§4) The drug interaction was scored as follows: synergy—FICI ≤ 0.5; no interaction—FICI > 0.5–4; antagonism—FICI > 4 [40]."}, "E. faecalis ATCC 29212 [6]": {"system": "E. faecalis ATCC 29212", "assay": "Broth checkerboard assay with conventional antibiotics", "assay_type": "cell-based, Enterococcus faecalis", "conditions": "antibiotic alone (-); BHI broth", "protocol": "as §2, §3, §4"}}, "data": [{"smiles": "NCCCC[C@H](NC(=O)CCN(Cc1ccc(F)cc1)C(=O)[C@H](CCCCN)NC(=O)CCN(Cc1ccc(F)cc1)C(=O)[C@H](CCCCN)NC(=O)CCN(Cc1ccc(F)cc1)C(=O)[C@H](CCCCN)NC(=O)CCN(Cc1ccc(F)cc1)C(=O)[C@H](CCCCN)NC(=O)CCN(Cc1ccc(F)cc1)C(=O)[C@H](CCCCN)NC(=O)CCN(Cc1ccc(F)cc1)C(=O)[C@H](CCCCN)NC(=O)CCN(Cc1ccc(F)cc1)C(=O)[C@@H](N)CCCCN)C(=O)N(CCC(N)=O)Cc1ccc(F)cc1", "note": "[Compound 7, H-[Lys-βNPhe(F)]8-NH2]", "values": [{"measurement": "Minimum inhibitory concentration", "setting": "E. faecium 1798", "value": "2 to 4", "unit": "µg/mL"}, {"measurement": "Minimum inhibitory concentration", "setting": "E. faecium 2961", "value": "2 to 4", "unit": "µg/mL"}, {"measurement": "Minimum inhibitory concentration", "setting": "E. faecium 3978", "value": "4 to 8", "unit": "µg/mL"}, {"measurement": "Minimum inhibitory concentration", "setting": "E. faecium D344R", "value": "4 to 8", "unit": "µg/mL"}, {"measurement": "Minimum inhibitory concentration", "setting": "E. faecium ATCC 19434 [1]", "value": "8 to 16", "unit": "µg/mL"}, {"measurement": "Minimum inhibitory concentration", "setting": "E. faecalis ATCC 29212 [2]", "value": "8 to 16", "unit": "µg/mL"}, {"measurement": "Minimum inhibitory concentration", "setting": "E. faecalis 38262; E. faecalis 38262, veterinary isolate, 24 h", "value": "> 32", "unit": "µg/mL"}, {"measurement": "Minimum inhibitory concentration", "setting": "E. faecalis 39002", "value": "8 to 16", "unit": "µg/mL"}, {"measurement": "Hydrophobicity, Luna C18(2) HST (0–60% B; 10 min), retention converted into % MeCN", "setting": "[3]", "value": 41.3, "unit": "% MeCN"}, {"measurement": "hemolysis at 60 min, 400 µg/mL", "setting": "Hemolytic activity", "value": 1.5, "unit": "%"}, {"measurement": "HepG2 IC50", "setting": "[4]", "value": 50, "unit": "µg/mL"}]}, {"smiles": "NCCCC[C@H](NC(=O)CCN(Cc1cc(F)c(F)c(F)c1)C(=O)[C@H](CCCCN)NC(=O)CCN(Cc1cc(F)c(F)c(F)c1)C(=O)[C@H](CCCCN)NC(=O)CCN(Cc1cc(F)c(F)c(F)c1)C(=O)[C@H](CCCCN)NC(=O)CCN(Cc1cc(F)c(F)c(F)c1)C(=O)[C@H](CCCCN)NC(=O)CCN(Cc1cc(F)c(F)c(F)c1)C(=O)[C@@H](N)CCCCN)C(=O)N(CCC(N)=O)Cc1cc(F)c(F)c(F)c1", "note": "[Compound 8, H-[Lys-βNPhe(F3)]6-NH2]", "values": [{"measurement": "Minimum inhibitory concentration", "setting": "E. faecium 1798", "value": "2 to 4", "unit": "µg/mL"}, {"measurement": "Minimum inhibitory concentration", "setting": "E. faecium 2961", "value": 2, "unit": "µg/mL"}, {"measurement": "Minimum inhibitory concentration", "setting": "E. faecium 3978", "value": 2, "unit": "µg/mL"}, {"measurement": "Minimum inhibitory concentration", "setting": "E. faecium D344R", "value": 2, "unit": "µg/mL"}, {"measurement": "Minimum inhibitory concentration", "setting": "E. faecium ATCC 19434 [1]", "value": "2 to 4", "unit": "µg/mL"}, {"measurement": "Minimum inhibitory concentration", "setting": "E. faecalis ATCC 29212 [2]", "value": "2 to 4", "unit": "µg/mL"}, {"measurement": "Minimum inhibitory concentration", "setting": "E. faecalis 38262; 38262, 24 h", "value": "8 to 16", "unit": "µg/mL"}, {"measurement": "Minimum inhibitory concentration", "setting": "E. faecalis 39002", "value": 2, "unit": "µg/mL"}, {"measurement": "hemolysis at 60 min, 400 µg/mL", "setting": "Hemolytic activity", "value": "> 20", "unit": "%"}, {"measurement": "HepG2 IC50", "setting": "[4]", "value": 27, "unit": "µg/mL"}]}, {"smiles": "CNC(C)C1CCC(N)C(OC2C(N)CC(N)C(OC3OCC(C)(O)C(NC)C3O)C2O)O1", "note": "(stereo not shown) [Gentamicin, gentamicin]", "values": [{"measurement": "MIC of antibiotic", "setting": "E. faecium ATCC 19434 [5]", "value": 64, "unit": "µg/mL"}, {"measurement": "MIC of antibiotic", "setting": "E. faecalis ATCC 29212 [6]", "value": 16, "unit": "µg/mL"}]}, {"smiles": "NCCCC[C@H](NC(=O)CCN(CC1CCCCC1)C(=O)[C@H](CCCCN)NC(=O)CCN(CC1CCCCC1)C(=O)[C@H](CCCCN)NC(=O)CCN(CC1CCCCC1)C(=O)[C@H](CCCCN)NC(=O)CCN(CC1CCCCC1)C(=O)[C@H](CCCCN)NC(=O)CCN(CC1CCCCC1)C(=O)[C@H](CCCCN)NC(=O)CCN(CC1CCCCC1)C(=O)[C@H](CCCCN)NC(=O)CCN(CC1CCCCC1)C(=O)[C@@H](N)CCCCN)C(=O)N(CCC(N)=O)CC1CCCCC1", "note": "[Compound 9, H-[Lys-βNCha]8-NH2]", "values": [{"measurement": "Minimum inhibitory concentration", "setting": "E. faecium 1798", "value": "2 to 4", "unit": "µg/mL"}, {"measurement": "Minimum inhibitory concentration", "setting": "E. faecium 2961", "value": "2 to 4", "unit": "µg/mL"}, {"measurement": "Minimum inhibitory concentration", "setting": "E. faecium 3978", "value": "2 to 4", "unit": "µg/mL"}, {"measurement": "Minimum inhibitory concentration", "setting": "E. faecium ATCC 19434 [1]", "value": "2 to 4", "unit": "µg/mL"}, {"measurement": "Minimum inhibitory concentration", "setting": "E. faecalis ATCC 29212 [2]", "value": "2 to 4", "unit": "µg/mL"}, {"measurement": "Minimum inhibitory concentration", "setting": "E. faecalis 38262; 38262, 24 h", "value": 8, "unit": "µg/mL"}, {"measurement": "Minimum inhibitory concentration", "setting": "E. faecalis 39002", "value": 4, "unit": "µg/mL"}, {"measurement": "hemolysis", "setting": "Hemolytic activity; 400 µg/mL, 60 min", "value": "> 20", "unit": "%"}]}]}
